Data reported in PMC6416898, “Prediction of Toxoplasma gondii virulence factor ROP18 competitive inhibitors by virtual screening” (Parasites & Vectors, 2019).
Like-named read-outs stand apart in the source and are kept apart here.

Molecular target: T1, ROP18 (187–554 aa) kinase domain (Toxoplasma gondii, UniProt Q2PAY2)
T1 construct: kinase domain 187-554 of ROP18; His6-GST-MBP-Gb1 fusion from plasmid pETDL4.0-ROP18, E. coli Rosetta 2, amylose beads; 4JRN is the docking structure (187-554), not solved here
Test: HTRF KinEASE kinase assay with biotinylated peptide substrate
Type: biochemical

T1 sequence (Q2PAY2 187-554): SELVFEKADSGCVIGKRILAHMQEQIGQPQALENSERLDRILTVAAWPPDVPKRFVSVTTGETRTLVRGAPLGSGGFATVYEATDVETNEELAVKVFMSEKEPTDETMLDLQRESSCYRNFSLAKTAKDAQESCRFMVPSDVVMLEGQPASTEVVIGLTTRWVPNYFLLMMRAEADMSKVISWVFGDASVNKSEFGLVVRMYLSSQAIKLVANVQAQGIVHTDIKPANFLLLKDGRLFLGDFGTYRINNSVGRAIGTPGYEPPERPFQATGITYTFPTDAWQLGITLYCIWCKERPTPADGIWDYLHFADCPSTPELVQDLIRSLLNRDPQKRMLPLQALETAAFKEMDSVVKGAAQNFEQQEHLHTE

Row | Compound | IC50 | IC50 (read-out: IC50)
1 | C=CCN1C(=O)NC(=O)/C(=C/c2cc(Br)c(OCC(=O)O)c(OC)c2)C1=O [compound 1] | 220 nM | 
2 | O=C(O)CCCCCN1C(=O)c2c(Br)c(Br)c(Br)c(Br)c2C1=O [compound 11, AK-918/11642046] |  | 41 nM
